Test results: patent US8324161B2, “Leukotriene B4 binding soluble lipocalin receptor from ixodes ricinus” (Universite Libre de Bruxelles, priority 2007, dated 2012)

What was measured:
[1] = tested on: LTB4-LIR polypeptide; assay: inhibition by eicosanoids of [3H]LTB4 binding to LTB4-LIR polypeptide; design: species or system Ixodes ricinus; conditions: for inhibition of 1 nM [3H]LTB4 binding to LTB4-LIR polypeptide: eicosanoid at a concentration of 10 μM, FIG. 4
Description: (§1) The polypeptide according to the invention was therefore tested for its ability to bind specifically leukotriene B4. The affinity-purified LTB4-LIR polypeptide was tested in binding assays according to a previously described method (Warlow, R. S., and Bernard, C. C. A. (1987). Solubilization and characterization of moderate and high affinity histamine binding sites on human blood mononuclear cells. Mol. Immunol. 24, 27-37).
(§2) The inhibition by various eicosanoids of [3H]LTB4 binding to LTB4-LIR polypeptide was also examined. […] Next, various concentrations of LTA4, LTB4, LTC4, LTD4, HETE, HPETE, and LXA4 was tested in the competition with [3H]LTB4 binding to LTB4-LIR polypeptide.

[2] = saturation binding of [3H]LTB4 to affinity-purified LTB4-LIR polypeptide
Description: as §1, §2

[3] = tested on: neutrophils; assay: transendothelial migration of neutrophils stimulated by LTB4 through Ea.hy926 endothelial cell layer; format: cell-based, human; conditions: 2 hours at 37° C.; neutrophils from three volunteers, in triplicate; FIG. 6
Description: The principal LTB4 function is the chemo-attraction of neutrophils to the sub-endothelial spaces of an inflammation site. One step of this process is the diapedesis of the neutrophils through the endothelial cells layer. The chemo-attractant effect of LTB4-LIR6 was tested by using a model of transendothelial migration of neutrophils.
Ea.hy926 cells, an endothelial cell line derived from the human umbilical vein, were used. These cells closely resemble HUVEC and maintain several characteristics of differentiated endothelium. The cells were allowed to reach confluence in chamber containing DMEM (Cambrex, Vervier, Belgium), supplemented with 10% Fetal Calf Serum, 2 mM L-Glutamine, 100 U/ml penicillin, 100 μg/ml streptomycin and HAT ([…], 0.4 μM aminopterin, 16 μM thymidine). […]
In the transendothelial assay, the protocol described by Nohgawa et al. was used (Nohgawa M., Sasada M., Maeda A., Asagoe K., Harakawa N., Takano K., Yamamoto K., Okuma M. Leukotriene B4-activated human endothelial cells promote transendothelial neutrophil migration. J Leuc. Biol, 1997 (62): 203-209). […] After 2 hours at 37° C., the upper chambers were removed and cells in lower chambers were counted. […]

CCCCC/C=C\C[C@@H](O)/C=C/C=C\C/C=C\CCCC(=O)O [12(R)-HETE]
inhibition of 1 nM [3H]LTB4 binding to LTB4-LIR polypeptide [1]: significant competitions

CCCCC/C=C\C[C@@H](O)/C=C/C=C/C=C\[C@@H](O)CCCC(=O)O [LTB4, leukotriene B4]
inhibition of 1 nM [3H]LTB4 binding to LTB4-LIR polypeptide [1]: significant competitions | competition with [3H]LTB4 binding to LTB4-LIR polypeptide at various concentrations ([1]; various concentrations, FIG. 5): dose-dependent inhibition

CCCCC/C=C\C\C=C/C=C/C=C/[C@@H](SC[C@H](N)C(=O)NCC(=O)O)[C@@H](O)CCCC(=O)O [LTD4]
inhibition of 1 nM [3H]LTB4 binding to LTB4-LIR polypeptide [1]: significant competitions

CCCCC/C=C\C\C=C/C=C/C=C/[C@@H](SC[C@H](N)C(=O)O)[C@@H](O)CCCC(=O)O [LTE4]
inhibition of 1 nM [3H]LTB4 binding to LTB4-LIR polypeptide [1]: significant competitions

B1: LTB4-LIR polypeptide: Leukotriene B4 binding Lipocalin from Ixodes ricinus, amino acid sequence SEQ ID NO: 2, expressed with V5-6×His tag in a baculovirus system (protein, listed as Ixodes ricinus)
chain: MLRIAVVAALCCFGTGTVSRFQQNATERHYQELNSNLSKYQDAWKSNTENAEYVLAYRTFQDIERTRIRRCVSATLRYKNKKNRTTVHRLRYYNTRDRKWEGHSVLTRFNATPGYTVPNLMLMSSYHNESDEGRLYWTLYSQYGSCNIVRVERNGGCELWVRKGLQDYISSCCWFIYKSYCGNENYQIYNTTYCKRKGPE
modifications: V5-6×His tag
Kd ([2]; FIG. 3, read-out: Kd value of specific and saturable binding for [3H]LTB4): 0.4 nM | Kd lower than that for human BLT1 membrane receptor ([2]; compared with literature Kd of human BLT1 (Yokomizo et al. 2001)): about 5 fold | Kd lower than that for human BLT2 membrane receptor ([2]; compared with literature Kd of human BLT2 (Yokomizo et al. 2001)): about 60 fold | effect on the transendothelial migration of neutrophils stimulated by LTB4 [3]: significant dose-response effect
